From publication PMC5053890 (Bioorganic & medicinal chemistry, 2016)

Molecular target: T1, GVIA iPLA2 (Homo sapiens, UniProt O60733)
T1 sequence (O60733 1-806): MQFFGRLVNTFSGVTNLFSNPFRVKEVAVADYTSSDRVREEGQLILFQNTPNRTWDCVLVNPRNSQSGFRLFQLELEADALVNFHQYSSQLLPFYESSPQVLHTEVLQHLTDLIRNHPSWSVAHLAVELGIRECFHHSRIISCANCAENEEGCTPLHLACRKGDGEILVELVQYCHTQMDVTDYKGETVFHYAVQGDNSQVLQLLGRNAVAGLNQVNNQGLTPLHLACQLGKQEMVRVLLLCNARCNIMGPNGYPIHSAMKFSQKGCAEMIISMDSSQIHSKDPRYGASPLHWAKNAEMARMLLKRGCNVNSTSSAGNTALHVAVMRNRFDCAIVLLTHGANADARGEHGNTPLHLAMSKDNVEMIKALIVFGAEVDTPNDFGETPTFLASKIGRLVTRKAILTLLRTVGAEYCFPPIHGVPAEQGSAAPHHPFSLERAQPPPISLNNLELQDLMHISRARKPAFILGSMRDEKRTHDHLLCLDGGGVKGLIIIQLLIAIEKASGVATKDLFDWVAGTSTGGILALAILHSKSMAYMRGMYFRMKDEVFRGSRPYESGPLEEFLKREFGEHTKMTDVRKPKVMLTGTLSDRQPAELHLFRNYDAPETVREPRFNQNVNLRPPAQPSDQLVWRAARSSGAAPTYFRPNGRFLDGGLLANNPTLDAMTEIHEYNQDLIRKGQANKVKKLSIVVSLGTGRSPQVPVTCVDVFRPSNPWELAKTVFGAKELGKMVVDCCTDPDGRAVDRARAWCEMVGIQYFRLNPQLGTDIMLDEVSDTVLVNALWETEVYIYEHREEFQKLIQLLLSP
Experiment: hydrogen/deuterium exchange mass spectrometry
Type: binding

CCCCCCCCSCC(=O)C(F)(F)F [Compound 3]
Average % Deuteration (Presence of OTFP) (peptide region 481-493): 27% | Average % Deuteration (Presence of OTFP) (peptide region 514-524): 48% | Average % Deuteration (Presence of OTFP) (peptide region 542-562): 51% | Average % Deuteration (Presence of OTFP) (peptide region 630-655): 48% | Average % Deuteration (Presence of OTFP) (peptide region 656-664): 49% | Average % Deuteration (Presence of OTFP) (peptide region 770-778): 43%
